Here are results for ten compounds from patent US9023844B2, “Heterocyclylpyri (mi) dinylpyrazole as fungicidals” (Bayer Intellectual Property GmbH, priority 2011, dated 2015).

Like-named read-outs stand apart in the source and are kept apart here.

In general, LogP refers to a log measure of how a compound divides between an organic and an aqueous phase. Low values mean a more hydrophilic compound, high ones a more lipophilic compound.

The test system of data set [1] is Fusarium nivale (var. majus). As to the kind of experiment: Example K: Fusarium nivale (var. majus) test (wheat) / preventive. It counts as in vivo. Conditions: 500 ppm of active ingredient, preventive spray, evaluated 5 days after inoculation. How it is done: After the spray coating has been dried, the plants are slightly injured by using a sandblast and afterwards they are sprayed with a conidia suspension of Fusarium nivale (var. majus).
The test is evaluated 5 days after the inoculation.

In a further data set the test system is Uromyces appendiculatus. In words: Example B: Uromyces test (beans) / preventive. It counts as in vivo. Conditions: in vivo.
In data set [2] the test system is Fusarium graminearum. It counts as in vivo. Conditions: in vivo.
Data set [3] concerns Pyricularia oryzae. In kind it is in vivo. As to conditions: in vivo.
The subject of data set [4] is Pyrenophora teres. In words: Example D: Pyrenophora test (barley) / preventive. As to conditions: in vivo. In kind it is in vivo.
A further data set concerns Sphaerotheca fuliginea. As to the kind of experiment: Example A: Sphaerotheca test (cucumber) / preventive. It counts as in vivo. As to conditions: in vivo.
The subject of the next data set is Phytophthora infestans. It counts as in vivo. As to conditions: in vivo.
In the next data set the test system is Plasmopara viticola. As to the kind of experiment: Example H: Plasmopara test (grapevines) / preventive. In kind it is in vivo. Conditions: in vivo.
Another data set deals with Septoria tritici. As to the kind of experiment: Example J: Septoria tritici test (wheat) / preventive. Conditions: in vivo. In kind it is in vivo.
In data set [5] the test system is DON/Acetyl-DON production by Fusarium graminearum. In words: microbe, parasite or virus in culture. It counts as cell-based.
The test system of a further data set is Puccinia recondita. As to the kind of experiment: Example E: Puccinia test (wheat) / preventive. In kind it is in vivo. As to conditions: in vivo.
The subject of a further data set is Venturia inaequalis. In words: Example I: Venturia test (apples) / preventive. As to conditions: 100 ppm of active ingredient, preventive spray, evaluated 10 days after inoculation.
In another data set the test system is Leptosphaeria nodorum. In words: Example C: Leptosphaeria test (wheat) / preventive. It counts as in vivo. As to conditions: in vivo.
The nature of data set [6]: Determination of log P values by HPLC on a reverse phase column (C18), EEC-Directive 79/831 Annex V.A8 (Methods A, B, C). Conditions: for chromatographic logP: reverse phase C18 HPLC column. In kind it is physicochemical. An outline of the steps:
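LogP was determined by C18 reverse-phase HPLC/UPLC with acetonitrile/water eluents containing formic acid. Method A used a 10–95% acetonitrile gradient over 4.25 min at 55 °C and 2.0 mL/min. Method B used 5–95% over 1.70 min at 55 °C and 2.0 mL/min, and Method C used 10–95% over 3.25 min at 40 °C and 0.8 mL/min, with MS detection.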

Data set [7] deals with Fusarium graminearum. As to the kind of experiment: microbe, parasite or virus in culture. It counts as cell-based.
Data set [8] deals with Pyrenophora teres. As to conditions: in vivo.
The test system of data set [9] is Pyricularia oryzae. It counts as in vivo.
[10] abbreviates: Method A: HPLC, reverse phase C18, acetonitrile (0.1% formic acid)/water (0.09% formic acid) gradient.
The mark [11] stands for this setting: Method B (HPLC, reverse phase C18).

Procedure for Venturia inaequalis: After the spray coating has dried on, the plants are inoculated with an aqueous conidia suspension of the causal agent of apple scab (Venturia inaequalis) and then remain for 1 day in an incubation cabinet at approximately 20° C. and a relative atmospheric humidity of 100%.
The plants are then placed in a greenhouse at approximately 21° C. and a relative atmospheric humidity of approximately 90%.
The test is evaluated 10 days after the inoculation.

As for `CCC(=O)Nc1cc(-c2c(-c3ccc(F)cc3)nn3c2OCCC3)ccn1` [Example 5], the efficacy in data set [1] was determined as 100%; in the data set with Uromyces appendiculatus it was 93%; with Fusarium graminearum [2] it was 100%; in the data set on Pyricularia oryzae [3], 100%; with Pyrenophora teres [4], 95%; in the data set with Sphaerotheca fuliginea, 95%. In addition, the efficacy with Phytophthora infestans was determined as 95%; in the data set with Plasmopara viticola, 100%; with Septoria tritici, 92%; with Puccinia recondita, 100%; in the data set with Venturia inaequalis, 98%; in the data set on Leptosphaeria nodorum, 90%. In data set [5] (at 50 μM), the “Inhibition of DON/AcDON in %” value was 100%. The LogP in data set [6] (setting [10]) is 1.46. Moreover, the “Growth inhibition of Fusarium graminearum in %” value (“Growth inhibition … in %” for short) in the data set on Fusarium graminearum [7] (at 50 μM) amounted to 62%.

Regarding `CCOC(=O)Nc1cc(-c2c(-c3ccccc3)nn3c2OCCC3)ccn1` [Example 9], the efficacy came to 93% in data set [1]; 94% in the data set with Uromyces appendiculatus; 100% with Fusarium graminearum [2]; 94% with Pyricularia oryzae [3]; 100% in the data set on Pyrenophora teres [4]; 95% in the data set with Sphaerotheca fuliginea. The efficacy with Phytophthora infestans was found to be 95%; with Plasmopara viticola, 94%; in the data set on Septoria tritici it was 80%; in the data set with Puccinia recondita, 100%; with Venturia inaequalis it was 100%; in the data set with Leptosphaeria nodorum, 95%. In [5] (at 50 μM), the “Inhibition of DON/AcDON in %” value stood at 100%. The same compound yielded a LogP in data set [6] (setting [11]) of 1.51. Further, the “Growth inhibition … in %” value in the data set with Fusarium graminearum [7] (at 50 μM) stood at 100%.

Take `CCC(C)C(=O)Nc1cc(-c2c(-c3ccccc3)nn3c2OCCC3)ccn1` (stereo not shown) [Example 10]: the efficacy is listed as 100% in data set [1]; 94% in the data set on Uromyces appendiculatus; 90% with Fusarium graminearum [2]; 94% in the data set on Pyricularia oryzae [3]; 80% in the data set with Pyrenophora teres [4]; 100% in the data set on Sphaerotheca fuliginea. The efficacy was determined as 95% with Phytophthora infestans; 94% in the data set with Plasmopara viticola; 86% with Septoria tritici; 100% in the data set with Puccinia recondita; 99% in the data set on Venturia inaequalis; 80% in the data set with Leptosphaeria nodorum. The “Inhibition of DON/AcDON in %” value in data set [5] (at 50 μM) amounted to 100%. The log partition coefficient (LogP) in data set [6] (setting [11]) was found to be 1.63. Moreover, the “Growth inhibition … in %” value in the data set with Fusarium graminearum [7] (at 50 μM) amounted to 95%.

In the case of `CC(C)C(=O)Nc1cc(-c2c(-c3ccc(F)cc3)nn3c2OCCC3)ccn1` [Example 22], the efficacy amounted to 100% in [1]; 94% in the data set on Uromyces appendiculatus; 100% with Fusarium graminearum [2]; 94% in the data set with Pyricularia oryzae [3]; 95% in the data set on Pyrenophora teres [4]; 100% in the data set on Sphaerotheca fuliginea. Also, the efficacy with Phytophthora infestans is reported as 95%; in the data set on Plasmopara viticola, 100%; with Septoria tritici, 100%; in the data set on Puccinia recondita, 100%; in the data set with Venturia inaequalis, 99%; with Leptosphaeria nodorum it was 90%. For the same compound, the “Inhibition of DON/AcDON in %” value in [5] (at 50 μM) is given as 100%. In data set [6] (setting [11]), the LogP was 1.54. Moreover, the “Growth inhibition … in %” value in the data set with Fusarium graminearum [7] (at 50 μM) is 99%.

On to `O=C(Nc1cc(-c2c(-c3ccc(F)cc3)nn3c2OCCC3)ccn1)C1CCOCC1` [Example 28], for which the efficacy in [1] is given as 100%; in the data set on Uromyces appendiculatus, 94%; with Fusarium graminearum [2], 86%; in the data set on Pyricularia oryzae [3], 94%; in the data set on Pyrenophora teres [4] it was 95%; with Sphaerotheca fuliginea, 100%. The efficacy in the data set on Phytophthora infestans is on record as 95%; in the data set with Plasmopara viticola it was 92%; in the data set on Septoria tritici it was 88%; in the data set with Puccinia recondita, 100%; in the data set on Venturia inaequalis, 98%; in the data set on Leptosphaeria nodorum it was 95%. Moreover, the “Inhibition of DON/AcDON in %” value in [5] (at 50 μM) is 99%. The compound also came in with a lipophilicity (LogP) in data set [6] (setting [11]) of 1.37. Also, the “Growth inhibition … in %” value with Fusarium graminearum [7] (at 50 μM) is 94%.

Take `CCC(=O)N(C(=O)CC)c1cc(-c2c(-c3ccc(F)cc3)nn3c2OCCC3)ccn1` [Example 53]: the efficacy in [1] came out at 100%; in the data set with Uromyces appendiculatus it was 74%; with Fusarium graminearum [2], 100%; in the data set on Pyricularia oryzae [3] it was 90%; in the data set on Pyrenophora teres [4] it was 100%; with Sphaerotheca fuliginea it was 95%. For the same compound, the efficacy in the data set with Phytophthora infestans is reported as 95%; in the data set on Plasmopara viticola, 98%; in the data set with Septoria tritici, 75%; with Puccinia recondita it was 95%; in the data set on Venturia inaequalis, 100%; in the data set with Leptosphaeria nodorum, 90%. In addition, the “Inhibition of DON/AcDON in %” value in data set [5] (at 50 μM) was 100%. The compound also gave a LogP in [6] (setting [10]) of 2.74. In addition, the “Growth inhibition … in %” value in the data set with Fusarium graminearum [7] (at 50 μM) is on record as 79%.

`O=C(Nc1cc(-c2c(-c3ccc(F)cc3)nn3c2OCCC3)ccn1)C1C2CCCCC21` (stereo not shown) [Example 65]: the “protection (% of efficacy)” value was found to be 71% with Pyrenophora teres [8] and 80% in the data set with Pyricularia oryzae [9] (in vivo). Besides, the LogP in [6] (setting [11]) was 2.13.

Turning to `CCC(=O)Nc1cc(-c2c(-c3ccc(F)cc3)nn3c2OC[Si](C)(C)C3)ccn1` [Example 77], the efficacy in data set [1] amounted to 90%; in the data set on Uromyces appendiculatus it was 94%; in the data set on Fusarium graminearum [2], 100%; with Pyricularia oryzae [3] it was 90%; with Pyrenophora teres [4] it was 95%; in the data set on Sphaerotheca fuliginea, 95%. Further, the efficacy in the data set with Phytophthora infestans was 100%; in the data set on Plasmopara viticola, 100%; in the data set on Septoria tritici it was 71%; in the data set on Puccinia recondita it was 100%; with Venturia inaequalis it was 96%; in the data set with Leptosphaeria nodorum it was 94%. Besides, the “Inhibition of DON/AcDON in %” value in [5] (50 µM) is reported as 100%. Also, the LogP in [6] (Method C (HPLC, reverse phase C18)) turned out to be 2.15. In addition, the “Growth inhibition … in %” value in the data set with Fusarium graminearum [7] (50 µM) amounted to 91%.

As to `C[Si]1(C)COc2c(-c3ccnc(N)c3)c(-c3cccs3)nn2C1` [Example 89, 4-[3,3-dimethyl-7-(2-thienyl)-3,4-dihydro-2H-pyrazolo[5,1-b][1,3,5]oxazasilin-8-yl]pyridin-2-amine], the chromatographic logP in [6] (Method C (HPLC, reverse phase C18), read-out: LogP) was 1.55; in data set [6] (pH 2.3, intermediates of formula [II], HPLC, reverse phase C18, read-out: LogP (pH 2.3)), 1.55. Moreover, in the data set with Pyricularia oryzae [9] (dose of 500 ppm, rice plants, grading 6 days after contamination), the “protection (% of efficacy)” value came out at 75%.

As for `CCC(=O)N(C(=O)CC)c1cc(-c2c(-c3ccc(F)cc3F)nn3c2OCCC3)ccn1` [Example 95], the “Inhibition of DON/AcDON in %” value in data set [5] (at 50 μM) came out at 97%. The same compound returned a log partition coefficient (LogP) in data set [6] (setting [10]) of 2.68. For the same compound, the “Growth inhibition … in %” value in the data set on Fusarium graminearum [7] (at 50 μM) is reported as 77%. The “protection (% of efficacy)” value in the data set with Pyricularia oryzae [9] (in vivo) was 83%.
